The results in this text go back to patent publication US4633014A, “Substituted 3-hydrazinopropionates” (priority 1983, dated 1986).

Usually LD50 stands for the dose at which mortality reaches 50%. A low value points to greater toxicity.

The test system of series [1] is arrhythmia induced by an intravenous administration of calcium chloride. Description: Antiarrhythmic activity on a model of arrhythmia induced by intravenous calcium chloride (antagonism to calcium) in mice. In kind it is in vivo. The note with it: white mice, 20-40 minutes before. The method, then:
The specific (antiarrhythmic) effect and acute toxicity were studied.
The antiarrhythmic activity of the compounds according to the present invention was studied on a model of arrhythmia induced by an intravenous administration of calcium chloride. In experiments on white mice of both sexes with a mass of 18-25 g narcotized by urethane (1,200 mg/kg intraperitoneally) ECG in the second standard lead was recorded. A 2% solution of calcium chloride was introduced into the tail vein at a constant rate (0.01 ml for 2 sec). The dose of calcium chloride causing arrhythmia and the dose causing the heart arrest were determined. In the test groups the test compounds were administered intraperitoneally 20-40 minutes before the beginning of the experiment.

A further series in a line: in vivo. The note with it: mouse, in vivo, ip. The method, then:
(§1) The study of the effect provided by the compounds according to the present invention on the cardio-vascular system was carried out in experiments on white mice. The specific (antiarrhythmic) effect and acute toxicity were studied.
(§2) The acute toxicity of the compounds according to the present invention was determined in experiments on white mice with a mass of 20-25 g. The test compounds were administered intraperitoneally in the form of aqueous solutions or suspensions in Twin-80. Observation over the test animals was effected for 10 days.

A further series concerns white mice. Briefly: in vivo. The protocol: as §1, §2

Structures can show the parent of a compound that is named as a salt.

As to `CCOC(=O)CCN(C(=S)Nc1ccccc1)N(C)C` [I-10, 3-(2,2-dimethyl-1-phenylthiocarbamoylhydrazino)ethylpropionate], in series [1] (intraperitoneal dose 5 mg/kg), the “Dose of calcium chloride causing arrythmia in animals under experiment” value is on record as 102,0 mg/kg and the “Dose of calcium chloride causing death in animals under experiment” value (from here on “Dose of calcium chloride causing death”) was 108,8 mg/kg. Also, in series [1] (intraperitoneal dose 15 mg/kg), the “Dose of calcium chloride causing arrythmia in animals under experiment” value is 115,8 mg/kg and the “Dose of calcium chloride causing death” value is recorded as 125,7 mg/kg. The same compound gave a 50% lethal dose (LD50) at 240 h in the series “in vivo” of 1800 mg/kg. In addition, the “Relative toxisity to quinidine” value with white mice (mouse, in vivo, ip, 14400 min) is recorded as 11,5.

`CNC(=O)N(CCC(=O)OC)N(C)C` [I-2, 3-(2,2-Dimethyl-1-methylcarbamoylhydrazino)-methylpropionate]: in series [1] (intraperitoneal dose 5 mg/kg), the “Dose of calcium chloride causing arrythmia in animals under experiment” value is given as 112,0 mg/kg and the “Dose of calcium chloride causing death” value was 128,5 mg/kg. Besides, in series [1] (intraperitoneal dose 15 mg/kg), the “Dose of calcium chloride causing arrythmia in animals under experiment” value is reported as 124,5 mg/kg and the “Dose of calcium chloride causing death” value was 140,6 mg/kg. The compound also returned an LD50 at 240 h in the series “in vivo” of 2300 mg/kg. The “Relative toxisity to quinidine” value with white mice (mouse, in vivo, ip, 14400 min) is listed as 14,7.

Take `COC(=O)CCN(C(=O)c1ccccc1)N(C)C` [I-29, 3-(2,2-dimethyl-1-benzoylhydrazino)methylpropionate]: the “Dose of calcium chloride causing arrythmia in animals under experiment” value in series [1] (intraperitoneal dose 5 mg/kg) is 97,6 mg/kg; in series [1] (intraperitoneal dose 25 mg/kg), 140,2 mg/kg. Moreover, the “Dose of calcium chloride causing death” value in series [1] (intraperitoneal dose 5 mg/kg) is listed as 109,5 mg/kg; in series [1] (intraperitoneal dose 25 mg/kg), 142,0 mg/kg. The compound further came in with an LD50 at 240 h in “in vivo” of 3500 mg/kg. In the series on white mice (mouse, in vivo, ip, 14400 min), the “Relative toxisity to quinidine” value is listed as 22,4.

`CC(CN(C(=S)Nc1ccccc1)N(C)C)C(N)=O` (centres unmarked) [I-20, 3-(2,2-dimethyl-1-phenylthiocarbamoylhydrazino)2-methylpropionamide]: in series [1] (intraperitoneal dose 5 mg/kg), the “Dose of calcium chloride causing arrythmia in animals under experiment” value turned out to be 102 mg/kg and the “Dose of calcium chloride causing death” value came to 123 mg/kg. Besides, in series [1] (intraperitoneal dose 15 mg/kg), the “Dose of calcium chloride causing arrythmia in animals under experiment” value is 106,4 mg/kg and the “Dose of calcium chloride causing death” value is 118,6 mg/kg. In addition, the LD50 at 240 h in the series “in vivo” is 1340 mg/kg. Also, the “Relative toxisity to quinidine” value in the series with white mice (mouse, in vivo, ip, 14400 min) was 8,6.

As to `CNC(=S)N(CCC(=O)O)N(C)C` [I-59, Sodium salt of 3-(2,2-dimethyl-1-methylthiocarbamoylhydrazino)propionate], in series [1] (intraperitoneal dose 5 mg/kg), the “Dose of calcium chloride causing arrythmia in animals under experiment” value is listed as 93,4 mg/kg and the “Dose of calcium chloride causing death” value is recorded as 108,6 mg/kg. In series [1] (intraperitoneal dose 15 mg/kg), the “Dose of calcium chloride causing arrythmia in animals under experiment” value is on record as 112,5 mg/kg and the “Dose of calcium chloride causing death” value was 130,0 mg/kg. In the series “in vivo”, this compound displayed an LD50 at 240 h of 1800 mg/kg. Besides, the “Relative toxisity to quinidine” value in the series on white mice (mouse, in vivo, ip, 14400 min) is listed as 11,5.

On to `COC(=O)CCN(C(=O)c1ccccc1F)N(C)C` [I-31, 3-(2,2-dimethyl-I-(2'-fluorophenylcarbonyl)hydrazino)methylpropionate], for which the “Dose of calcium chloride causing arrythmia in animals under experiment” value was 88,5 mg/kg in series [1] (intraperitoneal dose 5 mg/kg) and 100,5 mg/kg in series [1] (intraperitoneal dose 15 mg/kg). Further, the “Dose of calcium chloride causing death” value in series [1] (intraperitoneal dose 5 mg/kg) is 109,0 mg/kg; in series [1] (intraperitoneal dose 15 mg/kg) it was 112,5 mg/kg. Also, the 50% lethal dose (LD50) at 240 h in “in vivo” is 1600 mg/kg. The “Relative toxisity to quinidine” value in the series with white mice (mouse, in vivo, ip, 14400 min) was 10,2.

Turning to `CNC(=S)N(CCC(N)=O)N(C)C` [I-17], the results for the “Dose of calcium chloride causing arrythmia in animals under experiment” value in series [1] (intraperitoneal dose 5 mg/kg) and in series [1] (intraperitoneal dose 15 mg/kg) were 87,5 mg/kg and 102,0 mg/kg, respectively. For the same compound, the results for the “Dose of calcium chloride causing death” value in series [1] (intraperitoneal dose 5 mg/kg) and in series [1] (intraperitoneal dose 15 mg/kg) were 138 mg/kg and 115 mg/kg, respectively. Also, the LD50 at 240 h in “in vivo” was found to be 2850 mg/kg. In the series on white mice (mouse, in vivo, ip, 14400 min), the “Relative toxisity to quinidine” value is listed as 18,3.

On to `CCC(=O)N(CCC#N)N(C)C` [I-62, 3-(2,2-dimethyl-1-propionylhydrazino)-propionitrile], for which the figures for the “Dose of calcium chloride causing arrythmia in animals under experiment” value in series [1] (intraperitoneal dose 5 mg/kg) and in series [1] (intraperitoneal dose 15 mg/kg) were 96,5 mg/kg and 98,7 mg/kg, respectively. Also, the “Dose of calcium chloride causing death” value in series [1] (intraperitoneal dose 5 mg/kg) was 120,5 mg/kg; in series [1] (intraperitoneal dose 15 mg/kg) it was 118,5 mg/kg. Further, the LD50 at 240 h in the series “in vivo” came to 930 mg/kg. Moreover, in the series with white mice (white mice, intraperitoneal, relative to quinidine), the “Relative toxisity to quinidine” value is reported as 5,9.

`CCCCCCCCCCCCCCCCCC(=O)N(CCC(N)=O)N(C)C` [I-50, 3-(2,2-dimethyl-1-octadecanoylhydrazino)propionamide]: in series [1] (intraperitoneal dose 5 mg/kg), the “Dose of calcium chloride causing arrythmia in animals under experiment” value was 102,4 mg/kg and the “Dose of calcium chloride causing death” value is reported as 118,0 mg/kg. In series [1] (intraperitoneal dose 15 mg/kg), the “Dose of calcium chloride causing arrythmia in animals under experiment” value is 118,6 mg/kg and the “Dose of calcium chloride causing death” value is reported as 142,5 mg/kg. Further, the LD50 at 240 h in the series “in vivo” is over 3000 mg/kg. Also, in the series on white mice (mouse, in vivo, ip, 14400 min), the “Relative toxisity to quinidine” value was > 19,2.

Take `CCCCCCCCCCCCCCCC(=O)N(CCC(=O)OC)N(C)C` [I-27, 3-(2,2-dimethyl-1-hexadecanoylhydrazino)methylpropionate]: in series [1] (intraperitoneal dose 5 mg/kg), the “Dose of calcium chloride causing arrythmia in animals under experiment” value is 92,7 mg/kg and the “Dose of calcium chloride causing death” value is 118,0 mg/kg. In series [1] (intraperitoneal dose 15 mg/kg), the “Dose of calcium chloride causing arrythmia in animals under experiment” value is 109,0 mg/kg and the “Dose of calcium chloride causing death” value is reported as 120,6 mg/kg. The compound further registered an LD50 at 240 h in the series “in vivo” of 2380 mg/kg. Also, in the series with white mice (mouse, in vivo, ip, 14400 min), the “Relative toxisity to quinidine” value was 15,2.

For `COC(=O)CC(C(=O)OC)N(C(=O)NCCCCCCNC(=O)N(C(CC(=O)OC)C(=O)OC)N(C)C)N(C)C` (centres unmarked) [I-57, 3-(2,2-dimethyl-1-/ε-(2-dimethylamino-2-dimethylsuccinato-2'-ylureido-1-yl)hexylcarbamoyl/hydrazino)-2-methoxycarbonylmethylpropionate], in series [1] (intraperitoneal dose 5 mg/kg), the “Dose of calcium chloride causing arrythmia in animals under experiment” value is 103,5 mg/kg and the “Dose of calcium chloride causing death” value was 115,0 mg/kg. Also, in series [1] (intraperitoneal dose 15 mg/kg), the “Dose of calcium chloride causing arrythmia in animals under experiment” value was 132,6 mg/kg and the “Dose of calcium chloride causing death” value is recorded as 150,0 mg/kg. This compound displayed an LD50 at 240 h in “in vivo” of over 3000 mg/kg. For the same compound, the “Relative toxisity to quinidine” value in the series on white mice (mouse, in vivo, ip, 14400 min) is on record as > 19,2.

As to `COC(=O)CCN(C(=S)Nc1ccccc1)N(C)C` [I-7, 3-(2,2-dimethyl-1-phenylthiocarbamoylhydrazino)methylpropionate], the entries for the “Dose of calcium chloride causing arrythmia in animals under experiment” value in series [1] (intraperitoneal dose 5 mg/kg), in series [1] (intraperitoneal dose 15 mg/kg) and in series [1] (intraperitoneal dose 25 mg/kg) were 132 mg/kg, 107,5 mg/kg and 90,0 mg/kg, respectively. The entries for the “Dose of calcium chloride causing death” value in series [1] (intraperitoneal dose 5 mg/kg), in series [1] (intraperitoneal dose 15 mg/kg) and in series [1] (intraperitoneal dose 25 mg/kg) were 135,6 mg/kg, 138,0 mg/kg and 113,0 mg/kg, respectively. In addition, the LD50 at 240 h in “in vivo” stood at 2100 mg/kg. Moreover, the “Relative toxisity to quinidine” value in the series with white mice (mouse, in vivo, ip, 14400 min) is 13,4.

For `C=CCNC(=S)N(CCC(=O)OC)N(C)C` [I-6, 3-(2,2-dimethyl-1-allylthiocarbamoylhydrazino)methylpropionate], in series [1] (intraperitoneal dose 5 mg/kg), the “Dose of calcium chloride causing arrythmia in animals under experiment” value is recorded as 97,9 mg/kg and the “Dose of calcium chloride causing death” value is recorded as 110,4 mg/kg. In series [1] (intraperitoneal dose 25 mg/kg), the “Dose of calcium chloride causing arrythmia in animals under experiment” value is 100,9 mg/kg and the “Dose of calcium chloride causing death” value is 113,7 mg/kg. In the series “in vivo”, this compound yielded an LD50 at 240 h of 3200 mg/kg. Moreover, the “Relative toxisity to quinidine” value with white mice (mouse, in vivo, ip, 14400 min) is recorded as 20,5.

As for `COC(=O)CCN(C(=O)CCO)N(C)C` [I-35, 3-(2,2-Dimethyl-1-3'-hydroxypropanoylhydrazino)-methylpropionate], in series [1] (intraperitoneal dose 5 mg/kg), the “Dose of calcium chloride causing arrythmia in animals under experiment” value is listed as 102,3 mg/kg and the “Dose of calcium chloride causing death” value was 120 mg/kg. Further, in series [1] (intraperitoneal dose 15 mg/kg), the “Dose of calcium chloride causing arrythmia in animals under experiment” value is reported as 105,8 mg/kg and the “Dose of calcium chloride causing death” value was 132,5 mg/kg. The compound also registered an LD50 at 240 h in “in vivo” of over 3000 mg/kg. In addition, in the series with white mice (mouse, in vivo, ip, 14400 min), the “Relative toxisity to quinidine” value was > 19,2.

Turning to `COC(=O)CCN(C(C)=O)N(C)C` [I-24, 3-(2,2-Dimethyl-1-acetylhydrazino)methylpropionate], the “Dose of calcium chloride causing arrythmia in animals under experiment” value in series [1] (intraperitoneal dose 5 mg/kg) was 108,0 mg/kg; in series [1] (intraperitoneal dose 15 mg/kg), 116,5 mg/kg. The “Dose of calcium chloride causing death” value in series [1] (intraperitoneal dose 5 mg/kg) is reported as 132,0 mg/kg; in series [1] (intraperitoneal dose 15 mg/kg), 140,3 mg/kg. This compound also returned a 50% lethal dose (LD50) at 240 h in the series “in vivo” of 1300 mg/kg. In addition, the “Relative toxisity to quinidine” value with white mice (mouse, in vivo, ip, 14400 min) is 8,3.

In the case of `CCCCCCCCOC(=O)CCN(C(=S)Nc1ccccc1)N(C)C` [I-60, 3-(2,2-dimethyl-1-phenylthiocarbamoylhydrazino)octylpropionate], in series [1] (intraperitoneal dose 5 mg/kg), the “Dose of calcium chloride causing arrythmia in animals under experiment” value is recorded as 90,8 mg/kg and the “Dose of calcium chloride causing death” value is 132,5 mg/kg. For the same compound, in series [1] (intraperitoneal dose 15 mg/kg), the “Dose of calcium chloride causing arrythmia in animals under experiment” value is 107,5 mg/kg and the “Dose of calcium chloride causing death” value is recorded as 130,8 mg/kg. This compound returned an LD50 at 240 h in the series “in vivo” of 2420 mg/kg. The “Relative toxisity to quinidine” value in the series on white mice (mouse, in vivo, ip, 14400 min) is recorded as 15,5.
